Laboratory results taken from patent publication US20250136606A1, “MODULATORS OF TRPML, THEIR COMPOSITIONS AND METHODS OF USE” (Caraway Therapeutics, Inc., priority 2021, published 2025).
Read-outs that look alike come from different tables or passages of the source.

What was measured:
Assay type in all cases: cell-based
[1] = biological target: TRPML1 (Homo sapiens, UniProt Q9GZU1); experiment: Fluorescent TRPML1 assay (Fluo4-AM calcium fluorescence in doxycycline-induced HEK-293 Trex cells)
Method in brief: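 First, expression of surface-targeted mutant human TRPML1 is induced in HEK-293 Trex cells with 0.5 ug/mL doxycycline the day before. Next, cells take up 1 micromolar Fluo4-AM in Ringer's with 0.1% Pluronic. Finally, they are added to compounds (6 nanomolar–20 micromolar final) in 10 mM calcium Ringer's and fluorescence is read.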

[2] = biological target: T1, TRPML3 (Homo sapiens, UniProt Q8TDD5); experiment: Fluorescent TRPML3 assay (performed as for TRPML1, substituting the TRPML3 subtype)
T1 construct: expressed in transfected cells
T1 sequence (Q8TDD5 1-553): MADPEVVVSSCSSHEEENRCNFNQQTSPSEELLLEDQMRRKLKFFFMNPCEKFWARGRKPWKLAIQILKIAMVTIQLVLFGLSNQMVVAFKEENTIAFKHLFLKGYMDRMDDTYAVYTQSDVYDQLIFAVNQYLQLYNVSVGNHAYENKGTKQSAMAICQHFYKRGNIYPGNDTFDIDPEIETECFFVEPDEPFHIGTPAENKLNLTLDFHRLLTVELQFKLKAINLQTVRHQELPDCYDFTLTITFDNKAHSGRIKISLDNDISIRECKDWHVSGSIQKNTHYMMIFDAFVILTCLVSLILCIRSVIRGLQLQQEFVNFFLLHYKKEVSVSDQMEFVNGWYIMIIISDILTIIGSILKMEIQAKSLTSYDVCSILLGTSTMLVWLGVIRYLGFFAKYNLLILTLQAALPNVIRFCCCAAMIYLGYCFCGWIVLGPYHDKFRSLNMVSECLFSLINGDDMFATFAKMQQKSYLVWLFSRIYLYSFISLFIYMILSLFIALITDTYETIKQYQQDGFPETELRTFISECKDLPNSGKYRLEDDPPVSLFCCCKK
Method in brief: (§1)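 Agonist activity is scored as percent of plate controls from Fluo4 fluorescence after dye-loaded, doxycycline-induced HEK-293 Trex cells meet compound in high-calcium (10 mM) Ringer's. Compounds run in half-log dilutions from 20 micromolar final, in triplicate.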

[3] = biological target: T2, TRPML2 (Homo sapiens, UniProt Q8IZK6); experiment: Fluorescent TRPML2 assay (performed as for TRPML1, substituting the TRPML2 subtype)
T2 construct: expressed in transfected cells
T2 sequence (Q8IZK6 1-566): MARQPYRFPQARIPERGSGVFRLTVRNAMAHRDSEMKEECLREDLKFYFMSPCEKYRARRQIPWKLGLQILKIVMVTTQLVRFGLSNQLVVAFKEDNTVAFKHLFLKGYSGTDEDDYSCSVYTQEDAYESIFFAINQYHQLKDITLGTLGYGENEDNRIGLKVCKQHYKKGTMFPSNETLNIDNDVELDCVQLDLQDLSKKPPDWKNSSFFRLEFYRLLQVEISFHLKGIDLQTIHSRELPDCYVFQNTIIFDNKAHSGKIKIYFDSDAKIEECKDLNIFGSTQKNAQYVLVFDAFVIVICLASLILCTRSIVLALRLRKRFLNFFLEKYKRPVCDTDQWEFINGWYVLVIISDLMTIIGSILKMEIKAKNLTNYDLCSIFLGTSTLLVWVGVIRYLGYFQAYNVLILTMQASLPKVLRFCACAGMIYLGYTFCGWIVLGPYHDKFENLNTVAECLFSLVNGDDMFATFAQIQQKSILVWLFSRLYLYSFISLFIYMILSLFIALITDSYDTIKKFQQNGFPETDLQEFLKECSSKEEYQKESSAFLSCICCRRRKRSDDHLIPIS
Method in brief: as §1

Sequence of TRPML1 (Q9GZU1 whole entry L15A/L16A/L577A/L578A, form open): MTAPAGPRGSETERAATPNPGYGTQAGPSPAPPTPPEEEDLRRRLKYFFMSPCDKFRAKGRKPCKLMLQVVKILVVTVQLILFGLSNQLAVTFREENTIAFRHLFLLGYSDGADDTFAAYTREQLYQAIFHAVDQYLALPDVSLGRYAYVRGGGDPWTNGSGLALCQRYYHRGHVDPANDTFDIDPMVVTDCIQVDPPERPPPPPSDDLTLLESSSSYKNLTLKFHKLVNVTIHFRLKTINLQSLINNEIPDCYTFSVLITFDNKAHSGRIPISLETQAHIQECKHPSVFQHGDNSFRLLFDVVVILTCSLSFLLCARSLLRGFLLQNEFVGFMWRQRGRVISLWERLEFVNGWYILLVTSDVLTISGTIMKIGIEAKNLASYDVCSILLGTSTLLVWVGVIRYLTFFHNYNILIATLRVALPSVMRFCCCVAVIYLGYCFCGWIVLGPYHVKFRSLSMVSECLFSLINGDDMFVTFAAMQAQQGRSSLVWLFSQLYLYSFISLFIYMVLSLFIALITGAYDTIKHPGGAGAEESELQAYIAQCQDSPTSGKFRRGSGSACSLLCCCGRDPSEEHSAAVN

Compound `C[C@H]1CN(C(=O)OC(C)(C)C)CCN1c1ncnc2c1c(C1CC1)cn2-c1cc(C#N)n(C)c1` [Compound 445, tert-butyl (S)-4-(7-(5-cyano-1-methyl-1H-pyrrol-3-yl)-5-cyclopropyl-7H-pyrrolo[2,3-d]pyrimidin-4-yl)-3-methylpiperazine-1-carboxylate] has an EC50 ([1]; fluorescent calcium assay) of less than 100 nM, an EC50 ([2]; fluorescent calcium assay) of less than 100 nM and an EC50 ([3]; fluorescent calcium assay) of 100 to 500 nM.

In the case of `Cc1cn(-c2cc(F)ccn2)c2ncnc(N3CCN(C(=O)OC(C)(C)C)C[C@@H]3C)c12` [Compound 681, tert-butyl (S)-4-(7-(4-fluoropyridin-2-yl)-5-methyl-7H-pyrrolo[2,3-d]pyrimidin-4-yl)-3-methylpiperazine-1-carboxylate], the EC50 [1] is reported as less than 100 nM, the EC50 [2] is reported as less than 100 nM and the EC50 [3] is reported as less than 100 nM.

`C[C@H]1CN(C(=O)OC(C)(C)C)CCN1c1ncnc2c1c(-c1nccnc1F)cn2-c1cccc(Cl)c1` [Compound 267, tert-butyl (S)-4-(7-(3-chlorophenyl)-5-(3-fluoropyrazin-2-yl)-7H-pyrrolo[2,3-d]pyrimidin-4-yl)-3-methylpiperazine-1-carboxylate] showed an EC50 ([1]; fluorescent calcium assay) of 100 to 500 nM, an EC50 ([2]; fluorescent calcium assay) of less than 100 nM and an EC50 ([3]; fluorescent calcium assay) of 100 to 500 nM.

`CC(C)(C)OC(=O)N1CCN(c2ncnc3c2c(C2CC2)cn3-c2cc(F)c(F)c(F)c2)CC1` [Compound 234, tert-butyl 4-(5-cyclopropyl-7-(3,4,5-trifluorophenyl)-7H-pyrrolo[2,3-d]pyrimidin-4-yl)piperazine-1-carboxylate] showed an EC50 ([1]; fluorescent calcium assay) of 100 to 500 nM, an EC50 ([2]; fluorescent calcium assay) of 100 to 500 nM and an EC50 ([3]; fluorescent calcium assay) of 500 to 2000 nM.

In the case of `C[C@H]1CN(C(=O)OC(C)(C)C(F)(F)F)CCN1c1ncnc2c1c(C1CC1)cn2-c1cccc(Cl)c1` [Compound 140, 1,1,1-trifluoro-2-methylpropan-2-yl (S)-4-(7-(3-chlorophenyl)-5-cyclopropyl-7H-pyrrolo[2,3-d]pyrimidin-4-yl)-3-methylpiperazine-1-carboxylate], the EC50 ([1]; fluorescent calcium assay) is reported as less than 100 nM, the EC50 ([2]; fluorescent calcium assay) is reported as less than 100 nM and the EC50 ([3]; fluorescent calcium assay) is reported as less than 100 nM.

For `Cc1cn(-c2ccccc2)c2ncnc(N3C[C@@H](C)N(C(=O)OC(C)(C)C)C[C@@H]3C)c12` [Compound 668, tert-butyl (2R,5S)-2,5-dimethyl-4-(5-methyl-7-phenyl-7H-pyrrolo[2,3-d]pyrimidin-4-yl)piperazine-1-carboxylate], the EC50 [1] was 100 to 500 nM, the EC50 [2] was 100 to 500 nM and the EC50 [3] was 500 to 2000 nM.

`Cc1nccnc1-c1cn(-c2cc(F)c(F)c(F)c2)c2ncnc(N3CCN(C(=O)OC(C)(C)C)C[C@@H]3C)c12` [Compound 305, tert-butyl (S)-3-methyl-4-(5-(3-methylpyrazin-2-yl)-7-(3,4,5-trifluorophenyl)-7H-pyrrolo[2,3-d]pyrimidin-4-yl)piperazine-1-carboxylate] was tested, and the EC50 ([1]; fluorescent calcium assay) was 500 to 2000 nM, the EC50 ([2]; fluorescent calcium assay) was 100 to 500 nM and the EC50 ([3]; fluorescent calcium assay) was greater than 2000 nM.

With `Cc1cn(-c2cc(C#N)ccn2)c2ncnc(N3CCN(C(=O)OC(C)(C)C)C[C@@H]3C)c12` [Compound 476, tert-butyl (S)-4-(7-(4-cyanopyridin-2-yl)-5-methyl-7H-pyrrolo [2,3-d]pyrimidin-4-yl)-3-methylpiperazine-1-carboxylate] the EC50 ([1]; fluorescent calcium assay) was less than 100 nM, the EC50 ([2]; fluorescent calcium assay) was less than 100 nM and the EC50 ([3]; fluorescent calcium assay) was less than 100 nM.

Work on `CC(C)(C)OC(=O)N1CCN(c2ncnc3c2c(C2CC2)cn3-c2cc(Cl)cc(Cl)c2)CC1` [Compound 122, tert-butyl 4-(5-cyclopropyl-7-(3,5-dichlorophenyl)-7H-pyrrolo[2,3-d]pyrimidin-4-yl)piperazine-1-carboxylate] yielded an EC50 ([1]; fluorescent calcium assay) of less than 100 nM, an EC50 ([2]; fluorescent calcium assay) of less than 100 nM and an EC50 ([3]; fluorescent calcium assay) greater than 2000 nM.

`C[C@@H]1CN(c2ncnc3c2c(C(F)(F)F)cn3-c2cncc(C#N)c2)[C@@H](C)CN1C(=O)OC(C)(C)C` [Compound 662, tert-butyl (2R,5S)-4-(7-(5-cyanopyridin-3-yl)-5-(trifluoromethyl)-7H-pyrrolo[2,3-d]pyrimidin-4-yl)-2,5-dimethylpiperazine-1-carboxylate] showed an EC50 [1] of less than 100 nM, an EC50 [2] of less than 100 nM and an EC50 [3] of 100 to 500 nM.

Compound `C[C@@H]1COCCN1c1cn(-c2cccc(C#N)c2)c2ncnc(N3CCN(C(=O)OC(C)(C)C)C[C@@H]3C)c12` [Compound 369, tert-butyl (S)-4-(7-(3-cyanophenyl)-5-((R)-3-methylmorpholino)-7H-pyrrolo[2,3-d]pyrimidin-4-yl)-3-methylpiperazine-1-carboxylate] has an EC50 ([1]; fluorescent calcium assay) of 100 to 500 nM, an EC50 ([2]; fluorescent calcium assay) of 100 to 500 nM and an EC50 ([3]; fluorescent calcium assay) of 500 to 2000 nM.

Compound `C[C@@H]1CN(c2ncnc3c2c(C2CC2)cn3-c2cccc(Cl)c2F)CCN1C(=O)OC(C)(C)C` [Compound 220, tert-butyl (R)-4-(7-(3-chloro-2-fluorophenyl)-5-cyclopropyl-7H-pyrrolo[2,3-d]pyrimidin-4-yl)-2-methylpiperazine-1-carboxylate] has an EC50 ([1]; fluorescent calcium assay) of less than 100 nM, an EC50 ([2]; fluorescent calcium assay) of less than 100 nM and an EC50 ([3]; fluorescent calcium assay) of 100 to 500 nM.

`C[C@H]1CN(C(=O)OC(C)(C)C)CCN1c1ncnc2c1c(C1CC1)cn2C1CCCC1` [Compound 339, tert-butyl (S)-4-(7-cyclopentyl-5-cyclopropyl-7H-pyrrolo[2,3-d]pyrimidin-4-yl)-3-methylpiperazine-1-carboxylate] gave an EC50 ([1]; fluorescent calcium assay) of 100 to 500 nM, an EC50 ([2]; fluorescent calcium assay) of 100 to 500 nM and an EC50 ([3]; fluorescent calcium assay) greater than 2000 nM.

`CC1CN(C(=O)OC(C)(C)C)CCN1c1ncnc2c1c(C1CC1)cn2-c1cncc(Cl)c1` (stereo not drawn) [Compound 164, tert-butyl 4-(7-(5-chloropyridin-3-yl)-5-cyclopropyl-7H-pyrrolo[2,3-d]pyrimidin-4-yl)-3-methylpiperazine-1-carboxylate] was tested, and the EC50 ([1]; fluorescent calcium assay) was less than 100 nM, the EC50 ([2]; fluorescent calcium assay) was less than 100 nM and the EC50 ([3]; fluorescent calcium assay) was 100 to 500 nM.

`COc1cccc(-n2cc(C3CC3)c3c(N4CCN(C(=O)OC(C)(C)C)C[C@H]4C)ncnc32)c1` [Compound 201, tert-butyl (R)-4-(5-cyclopropyl-7-(3-methoxyphenyl)-7H-pyrrolo[2,3-d]pyrimidin-4-yl)-3-methylpiperazine-1-carboxylate] showed an EC50 ([1]; fluorescent calcium assay) of 100 to 500 nM, an EC50 ([2]; fluorescent calcium assay) of 100 to 500 nM and an EC50 ([3]; fluorescent calcium assay) of 500 to 2000 nM.

`Cc1nccnc1-c1cn(-c2cc(F)cc(F)c2)c2ncnc(N3CCN(C(=O)OC(C)(C)C)C[C@@H]3C)c12` [Compound 246, tert-butyl (S)-4-(7-(3,5-difluorophenyl)-5-(3-methylpyrazin-2-yl)-7H-pyrrolo[2,3-d]pyrimidin-4-yl)-3-methylpiperazine-1-carboxylate] showed an EC50 ([1]; fluorescent calcium assay) of 500 to 2000 nM, an EC50 ([2]; fluorescent calcium assay) of 100 to 500 nM and an EC50 ([3]; fluorescent calcium assay) of 500 to 2000 nM.

Work on `C[C@H]1CN(C(=O)OC(C)(C)C)CCN1c1ncnc2c1c(-c1ccccc1F)cn2-c1cc(C(F)(F)F)ccn1` [Compound 651, tert-butyl (S)-4-(5-(2-fluorophenyl)-7-(4-(trifluoromethyl)pyridin-2-yl)-7H-pyrrolo[2,3-d]pyrimidin-4-yl)-3-methylpiperazine-1-carboxylate] yielded an EC50 [1] of less than 100 nM, an EC50 [2] of less than 100 nM and an EC50 [3] of less than 100 nM.

For `C[C@H]1CN(C(=O)OC(C)(C)C)CCN1c1ncnc2c1c(C1CC1)cn2-c1cc(C#N)n(C)n1` [Compound 413, tert-butyl (S)-4-(7-(5-cyano-1-methyl-1H-pyrazol-3-yl)-5-cyclopropyl-7H-pyrrolo[2,3-d]pyrimidin-4-yl)-3-methylpiperazine-1-carboxylate], the EC50 ([1]; fluorescent calcium assay) was 100 to 500 nM, the EC50 ([2]; fluorescent calcium assay) was less than 100 nM and the EC50 ([3]; fluorescent calcium assay) was 100 to 500 nM.

Work on `C[C@H]1CN(C(=O)OC(C)(C)C)CCN1c1ncnc2c1c(C1CC1)cn2-c1cccc(OC(F)F)c1` [Compound 198, tert-butyl (S)-4-(5-cyclopropyl-7-(3-(difluoromethoxy)phenyl)-7H-pyrrolo[2,3-d]pyrimidin-4-yl)-3-methylpiperazine-1-carboxylate] yielded an EC50 ([1]; fluorescent calcium assay) of less than 100 nM, an EC50 ([2]; fluorescent calcium assay) of less than 100 nM and an EC50 ([3]; fluorescent calcium assay) of 100 to 500 nM.
